Assay results published in patent US9944598B2, “Mono- or di-substituted indole derivatives as dengue viral replication inhibitors” (priority 2014, dated 2018).

Tests used:
Vero cells = test: in vitro; format: cell-based; conditions: African green monkey
Description: In parallel, the toxicity of the compounds was assessed on the same plates. Once the read-out for the eGFP signal was done, 10 μL of resazurin, a cell viability stain, was added to all wells of the 384-well plates. The resazurin assay is based on the reduction of the blue resazurin by NADH, produced by the cells, into the highly fluorescent product, resorufin. The formation of pink fluorescent resorufin is directly related to the number of viable cells in the well. The plates were incubated for an additional 5 hours in a fully humidified incubator (37° C., 5% CO2). Next, the plates were measured on an Infinite reader (Tecan) using an excitation wavelength of 530 nm. The half maximal cytotoxic concentration (CC50) was also determined, defined as the concentration required to reduce the resazurin conversion by 50% compared to that of the cell control wells (Table 1). Finally, the selectivity index (SI) is determined for the compounds, which is calculated as followed: SI=CC50/EC50.

[1] = test system: DENV-2 16681 strain labeled with eGFP; test: DENV-2 antiviral assay (eGFP fluorescence, Vero cells); format: cell-based, Dengue virus; conditions: DENV-2 16681 eGFP, MOI 0.5, 3 days
Description: The antiviral activity of all the compounds of the invention was tested against DENV-2 16681 strain which was labeled with enhanced green fluorescent protein (eGPF). The culture medium consists of minimal essential medium supplemented with 2% of heat-inactivated fetal calf serum, 0.04% gentamycin (50 mg/mL) and 2 mM of L-glutamine. Vero cells, obtained from ECACC, were suspended in culture medium and 25 μL was added to 384-well plates (2500 cells/well), which already contain the antiviral compounds. Typically, these plates contain a 4-fold serial dilution of 9 dilution steps of the test compound at 200 times the final concentration in 100% DMSO (200 nL). In addition, each compound concentration is tested in quadruplicate (final concentration range: 25 μM-0.00038 μM). Finally, each plate contains wells which are assigned as virus controls (containing cells and virus in the absence of compound), cell controls (containing cells in the absence of virus and compound) and medium controls (containing medium in the absence of cells, virus and compounds). To the wells assigned as medium control, 25 μL of culture medium was added instead of Vero cells. Once the cells were added to the plates, the plates were incubated for 30 minutes at room temperature to allow the cells to distribute evenly within the wells. Next, the plates were incubated in a fully humidified incubator (37° C., 5% CO2) until the next day. Then, DENV-2 strain 16681, labeled with eGFP, was added at a multiplicity of infection (MOI) of 0.5. Therefore, 15 μL of virus suspension was added to all the wells containing test compound and to the wells assigned as virus control. In parallel, 15 μL of culture medium was added to the medium and cell controls. Next, the plates were incubated for 3 days in a fully humidified incubator (37° C., 5% CO2). At the day of the read out, the eGFP fluorescence was measured using an automated fluorescence microscope at 488 nm (blue laser). Using an in-house LIMS system, inhibition dose response curves for each compound were calculated and the half maximal effective concentration (EC50) was determined. Therefore, the percent inhibition (I) for every test concentration is calculated using the following formula: I=100*(ST−SCC)/(SVC−SCC); ST, SCC and SVC are the amount of eGFP signal in the test compound, cell control and virus control wells, respectively. The EC50 represents the concentration of a compound at which the virus replication is inhibited with 50%, as measured by a 50% reduction of the eGFP fluorescent intensity compared to the virus control. The EC50 is calculated using linear interpolation (Table 1).

[2] = Chiral stability at pH 7.4 (enantiomeric excess by Chiral SFC); format: physicochemical
Description: The chiral stability of Enantiomer 1A (R=OMe) was evaluated by determination of the enantiomeric excess (ee %) after incubation for 24 h and 48 h in a buffered solution at pH 7.4 at 40° C. and 60° C. To assess the influence of the methoxy-substituent of Enantiomer 1A (R=OMe) on the stability against racemization, the chiral stability of Enantiomer 1′A (R═H) was tested under the same conditions.
To this end, 5 μM buffered (pH=7.4) solutions of 1A and 1′A were prepared by mixing 25 μL of a 100 μM solution of 1A or 1′A in DMSO with 475 μL aqueous buffer pH 7.4. Samples were taken 24 h and 48 h after incubation at 40° C. and 60° C. The analytical samples were analyzed by Chiral SFC (MS detection) and the chiral purity was expressed as the enantiomeric excess (ee %=% enantiomer A−% enantiomer B).

Structure (SMILES)	EC50 [1] [nM]	other results
COc1cc(NC(C(=O)c2c[nH]c3c(F)c(F)ccc23)c2ccc(Cl)cc2OC)cc(OCCO)c1 (single isomer, unassigned) [Compound 11B, 2-(4-chloro-2-methoxyphenyl)-1-(6,7-difluoro-1H-indol-3-yl)-2-((3-(2-hydroxyethoxy)-5-methoxyphenyl)amino)ethanone]	1.2	CC50 (Vero cells): 4100 nM
COc1cc(NC(C(=O)c2c[nH]c3cc(OC)ccc23)c2ccc(Cl)cc2OC)cc(OCCO)c1 (single isomer, unassigned) [Compound 5A, 2-(4-chloro-2-methoxyphenyl)-2-((3-(2-hydroxyethoxy)-5-methoxyphenyl)amino)-1-(6-methoxy-1H-indol-3-yl)ethanone]	0.84	
COc1cc(NC(C(=O)c2c[nH]c3c(C)c(F)ccc23)c2ccc(Cl)cc2OC)cc(OCCO)c1 (single isomer, unassigned) [Compound 2A, 2-(4-chloro-2-methoxyphenyl)-1-(6-fluoro-7-methyl-1H-indol-3-yl)-2-((3-(2-hydroxyethoxy)-5-methoxyphenyl)amino)ethanone]	0.81	
COc1cc(NC(C(=O)c2c[nH]c3cc(Cl)ccc23)c2ccc(Cl)cc2OC)cc(OCCO)c1 (single isomer, unassigned) [Compound 4A, 1-(6-chloro-1H-indol-3-yl)-2-(4-chloro-2-methoxyphenyl)-2-((3-(2-hydroxyethoxy)-5-methoxyphenyl)amino)ethanone]	0.7	
COc1cc(NC(C(=O)c2c[nH]c3c(C)c(Cl)ccc23)c2ccc(Cl)cc2OC)cc(OCCO)c1 (single isomer, unassigned) [Compound 3A, 2-(4-chloro-2-methoxyphenyl)-1-(6-chloro-7-methyl-1H-indol-3-yl)-2-((3-(2-hydroxyethoxy)-5-methoxyphenyl)amino)ethanone]	0.34	
COc1cc(NC(C(=O)c2c[nH]c3cc(F)c(F)cc23)c2ccc(Cl)cc2OC)cc(OCCO)c1 (single isomer, unassigned) [Compound 9A, 2-(4-chloro-2-methoxyphenyl)-1-(5,6-difluoro-1H-indol-3-yl)-2-((3-(2-hydroxyethoxy)-5-methoxyphenyl)amino)ethanone]		CC50 (Vero cells): 6500 nM
COc1cc(NC(C(=O)c2c[nH]c3cc(OC)c(F)cc23)c2ccc(Cl)cc2OC)cc(OCCO)c1 (single isomer, unassigned) [Compound 7A, 2-(4-chloro-2-methoxyphenyl)-1-(5-fluoro-6-methoxy-1H-indol-3-yl)-2-((3-(2-hydroxyethoxy)-5-methoxyphenyl)amino)ethanone]	1.1	
COc1cc(NC(C(=O)c2c[nH]c3cc(OC)c(C)cc23)c2ccc(Cl)cc2OC)cc(OCCO)c1 (single isomer, unassigned) [Compound 6A, 2-(4-chloro-2-methoxyphenyl)-2-((3-(2-hydroxyethoxy)-5-methoxyphenyl)amino)-1-(6-methoxy-5-methyl-1H-indol-3-yl)ethanone]	0.82	
COc1cc(NC(C(=O)c2c[nH]c3cc(F)ccc23)c2ccc(Cl)cc2OC)cc(OCCO)c1 (single isomer, unassigned) [Compound 1A, 2-(4-chloro-2-methoxyphenyl)-1-(6-fluoro-1H-indol-3-yl)-2-((3-(2-hydroxyethoxy)-5-methoxyphenyl)amino)ethanone]	0.81	ee % ([2]; 5 μM buffered solution pH 7.4, 40° C., 24 h): 100%; ee % ([2]; 5 μM buffered solution pH 7.4, 40° C., 48 h): 100%; ee % ([2]; 5 μM buffered solution pH 7.4, 60° C., 24 h): 99%; ee % ([2]; 5 μM buffered solution pH 7.4, 60° C., 48 h): 96%
COc1cc(NC(C(=O)c2c[nH]c3c(F)cc(C)cc23)c2ccc(Cl)cc2OC)cc(OCCO)c1 (single isomer, unassigned) [Compound 10A, 2-(4-chloro-2-methoxyphenyl)-1-(7-fluoro-5-methyl-1H-indol-3-yl)-2-((3-(2-hydroxyethoxy)-5-methoxyphenyl)amino)ethanone]	3.2	
COc1cc(NC(C(=O)c2c[nH]c3c(C)cc(F)cc23)c2ccc(Cl)cc2OC)cc(OCCO)c1 (single isomer, unassigned) [Compound 8A, 2-(4-chloro-2-methoxyphenyl)-1-(5-fluoro-7-methyl-1H-indol-3-yl)-2-((3-(2-hydroxyethoxy)-5-methoxyphenyl)amino)ethanone]	1.2	
